Data reported in ChEMBL document CHEMBL1201862, “PubChem BioAssay data set” (2004).
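Assay format: 96-well plates, 48-hour exposure. GI50 marks 50% less growth.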 Calls of active or inactive are those of the source. Cut-off read from the data, not from the text of the source: active = GI50 up to about 1.1 µM and inactive = higher.

Assays:
Experiment in all cases: inhibition of tumour cell growth, NCI panel, 48 h
BT-549 = test system: BT-549
CAKI-1 = test system: CAKI-1
HOP-62 = test system: HOP-62
Hs-578T = test system: Hs-578T
LOX IMVI = test system: LOX IMVI
MDA-MB-231 = test system: MDA-MB-231
NCI-H460 = test system: NCI-H460
OVCAR-5 = test system: OVCAR-5
OVCAR-8 = test system: OVCAR-8
SF-295 = test system: SF-295
SF-539 = test system: SF-539
SK-MEL-28 = test system: SK-MEL-28
SK-MEL-2 = test system: SK-MEL-2
SK-OV-3 = test system: SK-OV-3
SN12C = test system: SN12C
SNB-19 = test system: SNB-19
SW-620 = test system: SW-620
TK-10 = test system: TK-10
UACC-257 = test system: UACC-257
MDA-N = test system: MDA-N

Compound | GI50 (BT-549) | GI50 (CAKI-1) | GI50 (HOP-62) | GI50 (Hs-578T) | GI50 (LOX IMVI) | GI50 (MDA-MB-231) | GI50 (NCI-H460) | GI50 (OVCAR-5) | GI50 (OVCAR-8) | GI50 (SF-295) | GI50 (SF-539) | GI50 (SK-MEL-28) | GI50 (SK-MEL-2) | GI50 (SK-OV-3) | GI50 (SN12C) | GI50 (SNB-19) | GI50 (SW-620) | GI50 (TK-10) | GI50 (UACC-257) | GI50 (MDA-N)
O=S(=O)(c1cc(Cl)ccc1Cl)n1ccnc1 | 35.4 µM (inactive) | 39.7 µM (inactive) | 48 µM (inactive) | 51.4 µM (inactive) | 37.7 µM (inactive) | 23.4 µM (inactive) | 25.9 µM (inactive) | 35.5 µM (inactive) | 35.4 µM (inactive) | > 100 µM (inactive) | 17.4 µM (inactive) | > 100 µM (inactive) | 30.5 µM (inactive) | > 100 µM (inactive) | 30.2 µM (inactive) | 70.8 µM (inactive) | 77.4 µM (inactive) | 24.1 µM (inactive) | 26.7 µM (inactive) | –
O=C1c2cc(Cl)ccc2N=C(NC2CCCC2)C2CSCN12 (centres undefined) | > 100 µM (inactive) | > 100 µM (inactive) | > 100 µM (inactive) | 39.6 µM (inactive) | > 100 µM (inactive) | > 100 µM (inactive) | 47.4 µM (inactive) | > 100 µM (inactive) | > 100 µM (inactive) | > 100 µM (inactive) | – | > 100 µM (inactive) | 36.2 µM (inactive) | > 100 µM (inactive) | > 100 µM (inactive) | > 100 µM (inactive) | > 100 µM (inactive) | > 100 µM (inactive) | 71.6 µM (inactive) | > 100 µM (inactive)
O=C(c1ccc(Cl)c(Cl)c1)N(C(=S)OC12CC3CC(CC(C3)C1)C2)c1ccccc1 | 36 µM (inactive) | 29.9 µM (inactive) | 44.6 µM (inactive) | 41.3 µM (inactive) | – | 38.3 µM (inactive) | 37.8 µM (inactive) | 18.7 µM (inactive) | 41.5 µM (inactive) | 36.1 µM (inactive) | 36.6 µM (inactive) | 44.6 µM (inactive) | 20 µM (inactive) | 36.6 µM (inactive) | 26.9 µM (inactive) | 33.3 µM (inactive) | 35.2 µM (inactive) | 66.8 µM (inactive) | 41.2 µM (inactive) | 32.7 µM (inactive)
COc1cc(/C=C2/SC(c3ccccc3)N(c3cccc(NC(C)=O)c3)C2=O)cc(OC)c1OC (centres undefined) | 44.7 µM (inactive) | > 100 µM (inactive) | 81.8 µM (inactive) | 23.9 µM (inactive) | 40.3 µM (inactive) | – | 71.9 µM (inactive) | > 100 µM (inactive) | 52.6 µM (inactive) | 58.5 µM (inactive) | 49.3 µM (inactive) | 34 µM (inactive) | – | 75 µM (inactive) | 91.8 µM (inactive) | 31 µM (inactive) | 57.1 µM (inactive) | > 100 µM (inactive) | 67.8 µM (inactive) | 25.5 µM (inactive)
O=[N+]([O-])C1=Cc2cc(Cl)ccc2OC1c1cccc2ccccc12 (centres undefined) | 0.436 µM (active) | 0.366 µM (active) | 0.871 µM (active) | 0.692 µM (active) | 0.29 µM (active) | 1.77 µM (inactive) | 1.7 µM (inactive) | 1.99 µM (inactive) | 0.614 µM (active) | 2.38 µM (inactive) | – | 1.34 µM (inactive) | 1.36 µM (inactive) | 1.61 µM (inactive) | 0.723 µM (active) | 1.65 µM (inactive) | 0.149 µM (active) | 1.27 µM (inactive) | 1.34 µM (inactive) | 1 µM (active)
COc1cccc(C23CCCC(C2)NCC3Br)c1OC (centres undefined) | 15.6 µM (inactive) | 41.6 µM (inactive) | 38 µM (inactive) | 19.7 µM (inactive) | 37.5 µM (inactive) | > 100 µM (inactive) | 17.9 µM (inactive) | 56.2 µM (inactive) | 11.2 µM (inactive) | 38 µM (inactive) | – | 48 µM (inactive) | > 100 µM (inactive) | > 100 µM (inactive) | 31 µM (inactive) | 42.3 µM (inactive) | 35.6 µM (inactive) | 36.9 µM (inactive) | 8.39 µM (inactive) | 48.4 µM (inactive)
CCOP(=O)(/C=C/n1cc(C)c(=O)[nH]c1=O)OCC | > 100 µM (inactive) | > 100 µM (inactive) | > 100 µM (inactive) | – | > 100 µM (inactive) | > 100 µM (inactive) | > 100 µM (inactive) | > 100 µM (inactive) | > 100 µM (inactive) | > 100 µM (inactive) | > 100 µM (inactive) | > 100 µM (inactive) | > 100 µM (inactive) | > 100 µM (inactive) | > 100 µM (inactive) | > 100 µM (inactive) | > 100 µM (inactive) | > 100 µM (inactive) | > 100 µM (inactive) | > 100 µM (inactive)
COc1ccc(C2CC(c3ccc(NS(=O)(=O)c4cc([N+](=O)[O-])ccc4C)cc3)=NN2S(=O)(=O)c2cc([N+](=O)[O-])ccc2C)cc1 (centres undefined) | 36 µM (inactive) | 54.2 µM (inactive) | 80 µM (inactive) | – | 68.1 µM (inactive) | 43.6 µM (inactive) | 32.4 µM (inactive) | > 100 µM (inactive) | 71.9 µM (inactive) | 33 µM (inactive) | – | > 100 µM (inactive) | 35.6 µM (inactive) | 85.3 µM (inactive) | 43.5 µM (inactive) | 61.2 µM (inactive) | 72.9 µM (inactive) | 52.6 µM (inactive) | 30.6 µM (inactive) | 35.8 µM (inactive)
CC(=O)OCCCCN1C(=O)CSc2ccccc21 | 4.2 µM (inactive) | > 100 µM (inactive) | > 100 µM (inactive) | > 100 µM (inactive) | > 100 µM (inactive) | – | > 100 µM (inactive) | > 100 µM (inactive) | – | > 100 µM (inactive) | > 100 µM (inactive) | > 100 µM (inactive) | > 100 µM (inactive) | > 100 µM (inactive) | > 100 µM (inactive) | > 100 µM (inactive) | > 100 µM (inactive) | > 100 µM (inactive) | > 100 µM (inactive) | > 100 µM (inactive)
CC1CCc2sc3nc4n(c(=O)c3c2C1)CC(C)S4 (centres undefined) | 27.5 µM (inactive) | 36.9 µM (inactive) | 32.7 µM (inactive) | 39.9 µM (inactive) | 20.9 µM (inactive) | 20.4 µM (inactive) | 22.5 µM (inactive) | 27 µM (inactive) | 32.2 µM (inactive) | 14.3 µM (inactive) | – | 25.9 µM (inactive) | 19.5 µM (inactive) | 29.7 µM (inactive) | 21.5 µM (inactive) | 27.7 µM (inactive) | 43.9 µM (inactive) | 25.1 µM (inactive) | 20.2 µM (inactive) | 28.4 µM (inactive)
CC[C@H]1C=CCC[C@@]2(C[C@@H]3CC[C@H]4[C@@H](C(=O)OCCCCCCCCCCCCCCCC(=O)N(CCCNC(C)=O)C[C@H](CCNC(C)=O)OC(C)=O)[C@@]5(CCC[C@@H](C)O5)NC(=[N+]34)N2)O1 | 1.82 µM (inactive) | 2.22 µM (inactive) | 2 µM (inactive) | 1.93 µM (inactive) | 1.64 µM (inactive) | – | 1.6 µM (inactive) | 1.51 µM (inactive) | 1.4 µM (inactive) | 1.86 µM (inactive) | 1.48 µM (inactive) | 1.28 µM (inactive) | 1.72 µM (inactive) | 1.74 µM (inactive) | 2.01 µM (inactive) | 1.62 µM (inactive) | 1.53 µM (inactive) | 1.56 µM (inactive) | 1.24 µM (inactive) | 1.69 µM (inactive)
O=c1[nH]c2ccc([N+](=O)[O-])c(Cl)c2c2ccccc12 | 4.04 µM (inactive) | 2.41 µM (inactive) | 10.8 µM (inactive) | 3.86 µM (inactive) | 1.68 µM (inactive) | 8.07 µM (inactive) | 1.87 µM (inactive) | 5.04 µM (inactive) | 1.29 µM (inactive) | 2.62 µM (inactive) | 1.1 µM (active) | 11 µM (inactive) | 6.1 µM (inactive) | 1.66 µM (inactive) | 2.58 µM (inactive) | 1.91 µM (inactive) | 1.58 µM (inactive) | 1.37 µM (inactive) | 2.42 µM (inactive) | –
COc1cccc(/N=N/C(=N/NC(=O)c2cc(Cl)ccc2O)c2ccc(N(CCC#N)CCC#N)cc2C)c1 | 34.3 µM (inactive) | 48.3 µM (inactive) | 66.5 µM (inactive) | 33.2 µM (inactive) | – | 35.1 µM (inactive) | 32.7 µM (inactive) | > 100 µM (inactive) | 16.9 µM (inactive) | 37.3 µM (inactive) | 18.4 µM (inactive) | – | 57 µM (inactive) | 52 µM (inactive) | 27.5 µM (inactive) | 53.5 µM (inactive) | – | 48.8 µM (inactive) | 10.1 µM (inactive) | 41.1 µM (inactive)
COc1cc(C2=C(C)[C@@H]3CN(CC=C3c3ccc(Cl)cc3)C2)c(S(=O)(=O)O)cc1OC | > 100 µM (inactive) | > 100 µM (inactive) | > 100 µM (inactive) | > 100 µM (inactive) | > 100 µM (inactive) | > 100 µM (inactive) | – | > 100 µM (inactive) | > 100 µM (inactive) | > 100 µM (inactive) | – | > 100 µM (inactive) | > 100 µM (inactive) | > 100 µM (inactive) | > 100 µM (inactive) | > 100 µM (inactive) | > 100 µM (inactive) | > 100 µM (inactive) | > 100 µM (inactive) | > 100 µM (inactive)
N#CC(=S)Nc1cccc(Cl)c1 | 35.5 µM (inactive) | 41.9 µM (inactive) | 43.8 µM (inactive) | – | 39.3 µM (inactive) | 38.4 µM (inactive) | 19.9 µM (inactive) | 28.5 µM (inactive) | 32.3 µM (inactive) | 23.8 µM (inactive) | 25.9 µM (inactive) | 44.7 µM (inactive) | 26.5 µM (inactive) | 33.3 µM (inactive) | 44.1 µM (inactive) | 54.5 µM (inactive) | 53.2 µM (inactive) | 35.4 µM (inactive) | 37.2 µM (inactive) | 44.3 µM (inactive)
